≈ marks a conversion by molar mass, not a printed value. Like-named read-outs stand apart in the source and are kept apart here.
Tests used:
E. coli = assay: microbe, parasite or virus in culture; assay type: cell-based, Escherichia coli; details: strain O157:H7, WT
A. baumannii = assay: microbe, parasite or virus in culture; assay type: cell-based, Acinetobacter baumannii; details: strain ATCC 1960, WT
P. aeruginosa = assay: microbe, parasite or virus in culture; assay type: cell-based, Pseudomonas aeruginosa; details: strain PA01 (H103), WT
S. lividans = assay: microbe, parasite or virus in culture; assay type: cell-based, Streptomyces lividans; details: strain 1326, WT
R. jostii = assay: microbe, parasite or virus in culture; assay type: cell-based, Rhodococcus jostii; details: strain RHA1, WT
K. rhizophila = assay: microbe, parasite or virus in culture; assay type: cell-based, Kocuria rhizophila; details: WT
S. aureus = assay: microbe, parasite or virus in culture; assay type: cell-based, Staphylococcus aureus; details: strain ATCC 25923, WT
M. smegmatis = assay: microbe, parasite or virus in culture; assay type: cell-based, Mycobacterium smegmatis; details: strain mc^2155, WT
M. bovis BCG = assay: microbe, parasite or virus in culture; assay type: cell-based, Mycobacterium bovis; details: strain BCG Pasteur, WT
M. tuberculosis [1] = assay: microbe, parasite or virus in culture; assay type: cell-based, Mycobacterium tuberculosis
M. aurum = assay: MIC against mycobacterial species; assay type: cell-based; details: M. aurum
M. avium = assay: MIC against mycobacterial species; assay type: cell-based, Mycobacterium avium
M. chelonae = assay: MIC against mycobacterial species; assay type: cell-based; details: M. chelonae
M. gordonae = assay: MIC against mycobacterial species; assay type: cell-based; details: M. gordonae 324
M. intracellulare = assay: MIC against mycobacterial species; assay type: cell-based
M. microti = assay: microbe, parasite or virus in culture; assay type: cell-based
M. phlei = assay: MIC against mycobacterial species; assay type: cell-based; details: M. phlei
[2] = test system: M. tuberculosis H37Rv and mc25857 (an MDR isolate); assay type: cell-based, Mycobacterium tuberculosis; details: in vitro against M. tuberculosis, survival kinetics
M. tuberculosis Erdman [3] = assay: Mouse in vivo TB model, acute (GKO); details: for Toxicity / Log10 cfu reduction (lungs): Acute (GKO), Erdman; for Log10 cfu reduction (lungs): 50/35/15 H2O/PEG300/PG
Description: Mice were low-dose aerosol infected (50-100 bacteria). In the acute model, immune compromised mice were left untreated for 13 days to allow the infection to become established before 9 days of consecutive drug therapy was initiated. Drugs were administered by oral gavage. Log10 cfu reductions in the lungs were compared to untreated group. Rifampin was included as an internal control. An ordinary one-way ANOVA Bonferroni's multiple comparisons test was used to calculate p values. A p value<0.05 indicates statistically significant differences compared to the control group (vehicle).
Using an acute TB model, immune compromised mice were low-dose aerosol infected and then left untreated for 13 days to allow the infection to become established before 9 days of consecutive drug therapy was initiated. Drugs were administered orally and Log10 cfu reductions in the lungs were compared to and untreated group (vehicle) to rifampin treatment. […] Rifampicin was included as control.

M. tuberculosis Erdman [4] = assay: Mouse in vivo TB model, chronic (Balb/C); details: 10 mg/kg bw PO
[5] = test system: representative Gram-positive and Gram-negative bacteria; assay type: cell-based
[6] = Horses, 200 μg/kg oral; cited from earlier work
[7] = 0.2 mg/kg oral, cited from earlier work
[8] = cited from earlier work; for Cmax / AUC / T½: Humans
[9] = Dogs, 250 μg/kg oral; cited from earlier work
[10] = mice; cited from earlier work
[11] = single dose, clinical studies, cited from earlier work
[12] = ivermectin: extra-label use; selamectin, moxidectin: therapeutic doses; cited from earlier work
M. tuberculosis [13] = details: Jayaram et al. 2003; cited from earlier work
[14] = less sensitive strains CI15072, CI12081, BC-MDR2, BC-DS4 and BC-DS5

## CC[C@H](C)[C@H]1O[C@]2(CC[C@@H]1C)C[C@@H]1C[C@@H](C/C=C(\C)[C@@H](O[C@H]3C[C@H](OC)[C@@H](O[C@H]4C[C@H](OC)[C@@H](O)[C@H](C)O4)[C@H](C)O3)[C@@H](C)/C=C/C=C3\CO[C@@H]4[C@H](O)C(C)=C[C@@H](C(=O)O1)[C@]34O)O2 [Ivermectin]
E. coli
  In vitro MIC90: >256 µg/mL
A. baumannii
  In vitro MIC90: >256 µg/mL
P. aeruginosa
  In vitro MIC90: >256 µg/mL
S. lividans
  In vitro MIC90: >256 µg/mL
R. jostii
  In vitro MIC90: >256 µg/mL
K. rhizophila
  In vitro MIC90: >256 µg/mL
S. aureus
  In vitro MIC90: >256 µg/mL
M. smegmatis
  In vitro MIC90: 8 µg/mL
M. bovis BCG
  In vitro MIC90: 4 µg/mL
M. tuberculosis [1]; [14]
  MIC50: < 8 µg/mL
  MIC90: 24 µg/mL (≈ 27.4 µM)
M. tuberculosis [1]; strain 1254, WT
  In vitro MIC90: 8 µg/mL
M. tuberculosis [1]; strain BC-DS1 (drug-susceptible)
  In vitro MIC90: 4 to 16 µg/mL
M. tuberculosis [1]; strain BC-DS3 (drug-susceptible)
  In vitro MIC90: 8 to 16 µg/mL
M. tuberculosis [1]; strain BC-DS4
  value in parentheses in MIC90 column (MIC50): 8 µg/mL
M. tuberculosis [1]; strain BC-DS4 (drug-susceptible)
  In vitro MIC90: 64 µg/mL
M. tuberculosis [1]; strain BC-DS5
  value in parentheses in MIC90 column (MIC50): 8 µg/mL
M. tuberculosis [1]; strain BC-DS5 (drug-susceptible)
  In vitro MIC90: > 128 µg/mL
M. tuberculosis [1]; strain BC-MDR2
  value in parentheses in MIC90 column (MIC50): 8 µg/mL
M. tuberculosis [1]; strain CDC 1551, WT
  In vitro MIC90: 4 to 8 µg/mL
M. tuberculosis [1]; strain Erdman, WT
  In vitro MIC90: 8 µg/mL
M. tuberculosis [1]; strain H37Rv, WT
  In vitro MIC90: 6 µg/mL
M. aurum
  MIC: 2 µg/mL (≈ 2.29 µM)
M. avium; M. avium 702
  MIC: >256 µg/mL
M. avium; M. avium 715
  MIC: >256 µg/mL
M. avium; M. avium ATCC 25291
  MIC: >128 µg/mL
M. chelonae
  MIC: 4 µg/mL (≈ 4.57 µM)
M. gordonae
  MIC: 4 µg/mL (≈ 4.57 µM)
M. intracellulare; M. intracellulare 1403 ATCC35761
  MIC: 4 µg/mL (≈ 4.57 µM)
M. intracellulare; M. intracellulare 1403 Trudeau
  MIC: 4 µg/mL (≈ 4.57 µM)
M. intracellulare; M. intracellulare D673
  MIC: 8 µg/mL (≈ 9.14 µM)
M. intracellulare; M. intracellulare FM
  MIC: 8 µg/mL (≈ 9.14 µM)
M. microti; M. microti 1601
  MIC: 4 µg/mL (≈ 4.57 µM)
M. microti; M. microti 1608
  MIC: 256 µg/mL (≈ 293 µM)
M. phlei
  MIC: 32 µg/mL (≈ 36.6 µM)
[2]
  bactericidal or bacteriostatic: Bactericidal
M. tuberculosis Erdman [3]; 5 and 10 mg/kg doses, oral, Erdman 107
  activity in vivo in acute TB model: did not show activity
M. tuberculosis Erdman [3]; 5 mg/kg bw PO
  Toxicity: None
  Log10 cfu reduction (lungs): 0.32 Log10 cfu
M. tuberculosis Erdman [3]; 10 mg/kg bw PO
  Toxicity: None
  Log10 cfu reduction (lungs): 0.4 Log10 cfu
M. tuberculosis Erdman [4]
  Toxicity: None
M. tuberculosis Erdman [4]; 50/35/15 H2O/PEG300/PG
  Log10 cfu reduction (lungs): −0.11 Log10 cfu
[5]
  Inhibitory effects: not observed
[6]
  AUC: 3184 ng·h/mL
  Cmax: 44 ng/mL
  T½: 20 h
[7]; Mouse (lung)
  Cmax: 20 ng/mL
[7]; Mouse (plasma)
  AUC: 573 ng·h/mL
  Cmax: 20 ng/mL
  T½: 9.3 h
[8]; 12 mg (165 μg/kg) oral
  Cmax: 47 ng/mL
[8]; 30 mg (347-541 μg/kg) oral
  AUC: 2819 ng·h/mL
  Cmax: 85 ng/mL
  T½: 19 h
[8]; 30 mg (fed) oral
  AUC: 4564 ng·h/mL
  Cmax: 260 ng/mL
  T½: 15 h
[8]; 90 mg (1031-1466 μg/kg) oral
  AUC: 2910 ng·h/mL
  Cmax: 158 ng/mL
  T½: 19 h
[8]; 120 mg (1404-2000 μg/kg) oral
  AUC: 4547 ng·h/mL
  Cmax: 247 ng/mL
  T½: 19 h
[8]; healthy volunteers, 120 mg
  plasma concentrations: ca. 0.25 μg/mL
[8]; standard dose of 12 mg
  maximal concentration in plasma: ca. 50 ng/mL
[9]
  AUC: 5600 ng·h/mL
  Cmax: 132 ng/mL
  T½: 80 h
[10]
  LD50: 25 mg/kg body weight
[11]
  dose reported safe in humans: ≤ 120 mg
[11]; listed as ivermectin
  dose reported safe in humans: 120 mg
[12]
  toxicity in dogs lacking MDR1 P-glycoprotein / homozygous MDR1 mutation: severe signs of neurotoxicity

## CO[C@H]1/C=C/O[C@@]2(C)Oc3c(C)c(O)c4c(O)c(c(/C=N/N5CCN(C)CC5)c(O)c4c3C2=O)NC(=O)/C(C)=C\C=C\[C@H](C)[C@H](O)[C@@H](C)[C@@H](O)[C@@H](C)[C@H](OC(C)=O)[C@@H]1C [Rifampin]
M. tuberculosis [13]
  AUC24/MIC value required for 1 log 10 CFU/ml reduction, relative to avermectins and milbemycins: more than 10 times higher

Source: patent publication US9308215B2, “Avermectins and milbemycins as anti-mycobacterial agents” (priority 2013, dated 2016)
